Where only a bound is given, the exact number is not on record here.

Assay [1] has as its target T1, wild-type EGFR (Homo sapiens, UniProt P00533).
T1 construct: purchased Signalchem
Put plainly: Enzymology experiment in vitro (HTRF/FRET kinase activity), wild-type EGFR. Format: biochemical. The following applies: HTRF KinEASE-TK, read-out: EGFR (WT) IC50. In a few lines: (§1)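 HTRF KinEASE-TK format: EGFR enzyme preincubated with compound 10 min at room temperature, then peptide substrate plus ATP added for 40 min. Detection with EDTA, XL665-streptavidin and Eu³⁺-labeled antibody for 1 h.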

In assay [2] the target is T2, L858R/T790M/C797S triple mutant EGFR (Homo sapiens, UniProt P00533, C797S/L858R/T790M).
T2 construct: purchased Signalchem
T2 sequence (P00533 25-1210 T790M/C797S/L858R): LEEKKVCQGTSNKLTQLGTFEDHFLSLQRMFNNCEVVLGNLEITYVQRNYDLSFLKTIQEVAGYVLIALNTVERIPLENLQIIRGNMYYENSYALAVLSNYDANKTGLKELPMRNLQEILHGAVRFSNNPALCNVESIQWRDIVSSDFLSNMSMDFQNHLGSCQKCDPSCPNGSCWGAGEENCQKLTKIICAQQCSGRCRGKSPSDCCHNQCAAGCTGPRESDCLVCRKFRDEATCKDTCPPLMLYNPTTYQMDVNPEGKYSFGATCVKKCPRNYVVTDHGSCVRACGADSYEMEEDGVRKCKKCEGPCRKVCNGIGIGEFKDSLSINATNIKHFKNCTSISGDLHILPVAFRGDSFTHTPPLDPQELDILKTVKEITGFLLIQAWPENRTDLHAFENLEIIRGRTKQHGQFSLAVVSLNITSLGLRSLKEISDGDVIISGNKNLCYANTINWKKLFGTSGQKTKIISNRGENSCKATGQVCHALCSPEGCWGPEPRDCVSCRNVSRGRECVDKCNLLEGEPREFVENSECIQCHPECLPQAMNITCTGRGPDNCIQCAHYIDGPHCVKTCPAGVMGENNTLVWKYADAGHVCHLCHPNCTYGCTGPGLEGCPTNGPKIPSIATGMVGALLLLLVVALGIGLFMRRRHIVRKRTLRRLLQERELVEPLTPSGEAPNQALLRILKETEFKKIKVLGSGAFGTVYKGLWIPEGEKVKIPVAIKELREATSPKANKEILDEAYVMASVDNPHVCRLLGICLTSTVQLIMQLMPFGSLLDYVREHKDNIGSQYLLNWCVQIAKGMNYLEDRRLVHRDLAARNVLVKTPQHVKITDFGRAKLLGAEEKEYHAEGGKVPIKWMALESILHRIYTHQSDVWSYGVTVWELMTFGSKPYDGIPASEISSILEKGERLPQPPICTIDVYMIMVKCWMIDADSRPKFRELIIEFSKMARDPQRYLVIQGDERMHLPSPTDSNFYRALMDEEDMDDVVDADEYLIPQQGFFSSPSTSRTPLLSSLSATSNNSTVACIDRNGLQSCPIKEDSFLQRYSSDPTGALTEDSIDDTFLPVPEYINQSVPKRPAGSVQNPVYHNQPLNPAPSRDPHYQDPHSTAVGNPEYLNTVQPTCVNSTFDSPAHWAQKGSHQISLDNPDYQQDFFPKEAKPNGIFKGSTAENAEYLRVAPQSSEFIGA
Put plainly: Enzymology experiment in vitro (HTRF/FRET kinase activity), L858R/T790M/C797S triple mutant EGFR. Format: biochemical. The following applies: HTRF KinEASE-TK, read-out: EGFR (L858R/T790M/C797S) IC50. Put shortly: as §1
A general note: In TR-FRET formats the signal depends on donor and acceptor labels being close together.

In assay [3] the test system is EGFR wild-type cell line A431. Put plainly: Cell proliferation inhibition experiment (CellTiter-Glo), A431. The following applies: Homo sapiens, A-431, 72 h, A431 cells, Cell Titer-Glo, read-out: A431 EGFR WT IC50. Format: cell-based. Put shortly: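 A431 cells, 800 per well, were cultured 24 h and then exposed to serially diluted compound (0.1% DMSO final) for 72 h at 37° C., 5% CO2.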
(In general: In ATP-based viability assays light output follows the ATP content of the culture.)

Assay [4] deals with Ba/F3 De119/T790M/C797S EGFR triple mutant cell line (Homo sapiens, UniProt P00533, T790M/C797S, cells depend on it, form not given). Nature of the assay: Cell proliferation inhibition experiment (CellTiter-Glo), Ba/F3 De119/T790M/C797S. Format: cell-based. The following applies: Ba/F3 Del19/T790M/C797S EGFR triple mutant cells, 72 hours, Cell Titer-Glo; read-out: Ba/F3 (Del19/T790M/C797S) IC50.
Ba/F3 De119/T790M/C797S EGFR triple mutant cell line, sequence (P00533 with tags, fused parts or gaps DEL746-750/T790M/C797S, form open): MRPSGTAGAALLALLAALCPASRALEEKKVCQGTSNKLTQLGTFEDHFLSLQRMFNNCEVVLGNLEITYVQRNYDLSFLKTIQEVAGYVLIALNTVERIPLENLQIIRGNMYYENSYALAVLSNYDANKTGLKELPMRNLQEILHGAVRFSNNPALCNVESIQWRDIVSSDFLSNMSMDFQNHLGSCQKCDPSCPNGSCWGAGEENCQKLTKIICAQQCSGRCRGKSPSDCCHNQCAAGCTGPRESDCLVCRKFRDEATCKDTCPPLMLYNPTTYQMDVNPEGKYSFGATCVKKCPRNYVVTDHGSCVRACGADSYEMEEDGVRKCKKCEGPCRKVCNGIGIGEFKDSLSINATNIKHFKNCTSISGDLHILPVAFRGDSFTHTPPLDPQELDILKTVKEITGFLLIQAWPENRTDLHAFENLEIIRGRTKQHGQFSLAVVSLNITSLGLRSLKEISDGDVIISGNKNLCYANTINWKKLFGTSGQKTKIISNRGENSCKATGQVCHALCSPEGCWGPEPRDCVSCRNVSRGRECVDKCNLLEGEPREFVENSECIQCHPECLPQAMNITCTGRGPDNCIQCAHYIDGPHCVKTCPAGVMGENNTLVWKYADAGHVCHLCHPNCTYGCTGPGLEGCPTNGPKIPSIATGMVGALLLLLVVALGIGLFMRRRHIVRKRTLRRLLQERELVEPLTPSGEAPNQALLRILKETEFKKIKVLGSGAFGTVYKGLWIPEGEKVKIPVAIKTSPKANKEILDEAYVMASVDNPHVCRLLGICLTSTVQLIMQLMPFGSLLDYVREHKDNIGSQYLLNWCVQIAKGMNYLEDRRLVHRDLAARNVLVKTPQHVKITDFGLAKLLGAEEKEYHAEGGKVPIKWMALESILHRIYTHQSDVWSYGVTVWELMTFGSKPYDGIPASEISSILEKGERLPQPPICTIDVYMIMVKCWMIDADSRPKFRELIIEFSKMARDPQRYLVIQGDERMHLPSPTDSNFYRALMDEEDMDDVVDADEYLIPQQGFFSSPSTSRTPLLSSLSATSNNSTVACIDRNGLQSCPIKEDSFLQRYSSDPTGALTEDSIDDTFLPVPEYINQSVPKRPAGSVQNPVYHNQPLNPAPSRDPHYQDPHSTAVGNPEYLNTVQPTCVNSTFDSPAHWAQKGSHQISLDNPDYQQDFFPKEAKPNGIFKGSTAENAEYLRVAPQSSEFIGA

The target of assay [5] is Ba/F3 L858R/T790M/C797S EGFR triple mutant cell line (Homo sapiens, UniProt P00533, T790M/C797S/L858R, cells depend on it). Put plainly: Cell proliferation inhibition experiment (CellTiter-Glo), Ba/F3 L858R/T790M/C797S. Particulars: 72 hours, Cell Titer-Glo, read-out: Ba/F3 (L858R/T790M/C797S) IC50. The class given is cell-based.
Ba/F3 L858R/T790M/C797S EGFR triple mutant cell line, sequence (P00533 whole entry T790M/C797S/L858R): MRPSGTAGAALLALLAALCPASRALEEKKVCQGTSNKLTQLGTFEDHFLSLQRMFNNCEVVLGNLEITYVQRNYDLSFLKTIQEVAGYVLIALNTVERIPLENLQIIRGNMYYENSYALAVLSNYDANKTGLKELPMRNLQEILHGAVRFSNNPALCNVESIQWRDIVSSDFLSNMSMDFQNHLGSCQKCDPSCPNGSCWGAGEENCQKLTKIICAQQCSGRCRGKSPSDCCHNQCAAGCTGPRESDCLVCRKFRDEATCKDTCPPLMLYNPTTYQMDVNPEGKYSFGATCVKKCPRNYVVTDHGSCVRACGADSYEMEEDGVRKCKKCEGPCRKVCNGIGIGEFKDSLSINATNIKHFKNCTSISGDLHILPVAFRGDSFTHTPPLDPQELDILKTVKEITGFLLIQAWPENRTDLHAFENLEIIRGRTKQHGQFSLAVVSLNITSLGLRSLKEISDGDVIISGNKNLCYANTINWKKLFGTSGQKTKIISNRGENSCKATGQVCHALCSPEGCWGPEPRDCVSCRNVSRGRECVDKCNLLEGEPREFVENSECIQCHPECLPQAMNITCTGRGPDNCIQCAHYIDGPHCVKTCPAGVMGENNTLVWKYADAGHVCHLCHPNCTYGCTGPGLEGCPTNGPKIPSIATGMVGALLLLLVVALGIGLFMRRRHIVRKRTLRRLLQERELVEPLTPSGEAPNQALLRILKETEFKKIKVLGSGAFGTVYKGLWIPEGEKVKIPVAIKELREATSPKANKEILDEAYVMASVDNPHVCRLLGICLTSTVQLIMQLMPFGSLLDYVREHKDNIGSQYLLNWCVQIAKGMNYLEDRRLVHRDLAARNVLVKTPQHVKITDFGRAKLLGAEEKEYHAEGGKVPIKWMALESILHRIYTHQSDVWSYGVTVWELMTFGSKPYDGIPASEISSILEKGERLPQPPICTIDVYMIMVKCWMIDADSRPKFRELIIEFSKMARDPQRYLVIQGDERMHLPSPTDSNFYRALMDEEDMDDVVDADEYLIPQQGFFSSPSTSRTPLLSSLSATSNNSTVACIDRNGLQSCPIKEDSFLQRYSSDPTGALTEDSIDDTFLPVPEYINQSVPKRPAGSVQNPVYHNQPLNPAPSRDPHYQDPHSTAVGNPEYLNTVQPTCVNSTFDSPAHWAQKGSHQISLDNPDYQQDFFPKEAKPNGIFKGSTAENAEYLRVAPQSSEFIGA

T1 sequence (P00533 25-1210): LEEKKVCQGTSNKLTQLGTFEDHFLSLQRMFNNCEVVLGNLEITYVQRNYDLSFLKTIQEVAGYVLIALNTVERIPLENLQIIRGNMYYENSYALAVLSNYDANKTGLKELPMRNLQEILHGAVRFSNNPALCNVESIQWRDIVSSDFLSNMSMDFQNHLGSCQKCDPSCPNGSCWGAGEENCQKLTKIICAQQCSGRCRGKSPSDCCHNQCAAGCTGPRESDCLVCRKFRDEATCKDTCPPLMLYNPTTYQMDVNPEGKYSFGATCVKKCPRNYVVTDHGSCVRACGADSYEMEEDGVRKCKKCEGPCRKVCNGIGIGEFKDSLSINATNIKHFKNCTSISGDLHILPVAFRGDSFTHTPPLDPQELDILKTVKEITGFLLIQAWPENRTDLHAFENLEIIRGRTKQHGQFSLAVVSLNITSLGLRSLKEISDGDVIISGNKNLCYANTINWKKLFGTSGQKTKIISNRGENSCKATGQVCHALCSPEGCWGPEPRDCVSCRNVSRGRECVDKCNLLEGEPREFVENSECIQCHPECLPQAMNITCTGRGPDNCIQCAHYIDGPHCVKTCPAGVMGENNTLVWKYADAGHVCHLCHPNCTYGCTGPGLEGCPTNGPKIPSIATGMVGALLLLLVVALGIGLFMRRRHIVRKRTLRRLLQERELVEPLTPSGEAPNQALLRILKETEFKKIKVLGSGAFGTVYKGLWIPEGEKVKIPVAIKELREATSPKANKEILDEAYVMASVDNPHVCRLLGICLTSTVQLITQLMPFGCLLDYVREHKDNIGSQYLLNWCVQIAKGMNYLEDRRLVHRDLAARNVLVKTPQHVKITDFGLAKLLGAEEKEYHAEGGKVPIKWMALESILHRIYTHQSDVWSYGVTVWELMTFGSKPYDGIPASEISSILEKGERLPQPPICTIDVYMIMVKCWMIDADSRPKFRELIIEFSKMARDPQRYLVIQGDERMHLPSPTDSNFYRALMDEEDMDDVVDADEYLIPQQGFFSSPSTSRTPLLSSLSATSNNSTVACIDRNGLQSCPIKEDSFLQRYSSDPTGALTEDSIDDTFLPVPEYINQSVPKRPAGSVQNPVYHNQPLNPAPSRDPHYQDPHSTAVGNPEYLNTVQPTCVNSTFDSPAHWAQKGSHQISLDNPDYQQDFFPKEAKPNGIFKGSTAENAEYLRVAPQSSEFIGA

For `COc1cc(N2CCOCC2)c(-c2cnn(C)c2)cc1Nc1ncc(Br)c(Nc2ccc3nccnc3c2N(C)S(C)(=O)=O)n1` [compound 171, N-(6-((5-bromo-2-((2-methoxy-5-(1-methyl-1H-pyrazol-4-yl)-4-morpholinophenyl)amino)pyrimidin-4-yl)amino)quinoxalin-5-yl)-N-methylmethanesulfonamide], the IC50 in assay [1] amounted to 4.59 nM; in assay [2], 0.29 nM; in assay [3], 623 nM. Besides, the GI50 was 2.13 nM in assay [4] and 7.23 nM in assay [5].

Consider `COc1cc(N2CCC(N3CCN(CCF)CC3)CC2)c(-c2cnn(C)c2)cc1Nc1ncc(Br)c(Nc2ccccc2N(C)S(=O)(=O)C2CC2)n1` [compound 209], for which the IC50 in assay [1] stood at 9.74 nM; in assay [2] it was 0.73 nM; in assay [3], 171 nM. Also, the GI50 in assay [4] came to 7.18 nM; in assay [5], 12.6 nM.

In the case of `COc1cc(N2CCOCC2)c(-c2cnn(C)c2)cc1Nc1ncc(C)c(Nc2ccc3nccnc3c2P(C)(C)=O)n1` [compound 4], the IC50 is 1.41 nM in assay [1], 0.28 nM in assay [2] and 194 nM in assay [3]. The GI50 in assay [4] came out at 2.38 nM; in assay [5], 13.6 nM.

In the case of `COc1cc(N2CCC(N(C)C)C(F)C2)c(-c2cnn(C)c2)cc1Nc1ncc(Br)c(Nc2ccc3nccnc3c2P(C)(C)=O)n1` (stereo not drawn) [compound 216], the IC50 in assay [1] turned out to be 1.71 nM; in assay [2], 0.29 nM; in assay [3], 45.7 nM. Besides, the GI50 was determined as 2.06 nM in assay [4] and 7.32 nM in assay [5].

Take `COc1cc(N2CCC3(CCN(CC(F)F)CC3)CC2)c(-c2cnn(C)c2)cc1Nc1ncc(Br)c(Nc2ccc3nccnc3c2P(C)(C)=O)n1` [compound 149]: the IC50 in assay [1] amounted to 78.5 nM; in assay [2] it was 3.36 nM; in assay [3], 376 nM. In addition, the values for the GI50 in assay [4] and in assay [5] were 1.62 nM and 3.21 nM, respectively.

Consider `COc1cc(N2CCC3(CCN(CCF)CC3)CC2)c(-c2cnn(C)c2)cc1Nc1ncc(Cl)c(Nc2ccc3nccnc3c2P(C)(C)=O)n1` [compound 233], for which the IC50 in assay [1] stood at 2.49 nM; in assay [2], 0.26 nM; in assay [3] it was 79.5 nM. Moreover, the GI50 came to 1.74 nM in assay [4] and 3.54 nM in assay [5].

For the molecule `Cn1cc(-c2cc(Nc3ncc(Br)c(Nc4ccc5nccnc5c4P(C)(C)=O)n3)c(OCC(F)(F)F)nc2N2CCOCC2)cn1` [compound 34], the IC50 in assay [1] came to 15.2 nM; in assay [2], 0.27 nM; in assay [3], 462 nM. Also, the GI50 came out at 2.04 nM in assay [4] and 8.94 nM in assay [5].

Regarding `COc1cc(N2CCN(CC3CC3)CC2)c(-c2cnn(C)c2)cc1Nc1ncc(Br)c(Nc2ccc3nccnc3c2P(C)(C)=O)n1` [compound 157], the IC50 in assay [1] was found to be 3.6 nM; in assay [2], 0.33 nM; in assay [3] it was 49.4 nM. Also, the GI50 in assay [4] was determined as 1.28 nM; in assay [5] it was 7.05 nM.

As for `COc1cc(N2CCC(C)(OC)CC2)c(-c2cnn(C)c2)cc1Nc1ncc(Br)c(Nc2ccccc2P(C)(C)=O)n1` [compound 240], the IC50 in assay [1] came out at 29.9 nM; in assay [2] it was 0.51 nM; in assay [3] it was 304 nM. The values for the GI50 in assay [4] and in assay [5] were 8.2 nM and 19.2 nM, respectively.

Regarding `COc1cc(N2CCC3(CC2)COC3)c(-c2cnn(C)c2)cc1Nc1ncc(Br)c(Nc2ccc3nccnc3c2P(C)(C)=O)n1` [compound 15], the results for the IC50 in assay [1], in assay [2] and in assay [3] were 12.2 nM, under 0.05 nM and 177 nM, respectively. In addition, the GI50 in assay [4] was found to be 4.62 nM; in assay [5], 15.6 nM.

For `COc1cc(N2CC[C@H](OC)[C@H](F)C2)c(-c2cnn(C)c2)cc1Nc1ncc(Br)c(Nc2ccc3nccnc3c2P(C)(C)=O)n1` [compound 187], the IC50 in assay [1] is 5.73 nM; in assay [2], 0.04 nM; in assay [3] it was 245 nM. In addition, the GI50 stood at 2.11 nM in assay [4] and 8.73 nM in assay [5].

`COc1cc(N2CCC(N3CCO[C@H](C)C3)CC2)c(-c2cnn(C)c2)cc1Nc1ncc(Br)c(Nc2ccc3nccnc3c2P(C)(C)=O)n1` [compound 163]: the figures for the IC50 in assay [1], in assay [2] and in assay [3] were 1.89 nM, 0.28 nM and 71.8 nM, respectively. The GI50 was 0.62 nM in assay [4] and 1.97 nM in assay [5].

For `COc1cc(N2CCN(C3COC3)CC2)c(-c2cnn(C)c2)cc1Nc1ncc(Br)c(Nc2ccc3nccnc3c2P(C)(C)=O)n1` [compound 150, (6-((5-bromo-2-((2-methoxy-5-(1-methyl-1H-pyrazol-4-yl)-4-(4-(oxetan-3-yl)piperazin-1-yl)phenyl)amino)pyrimidin-4-yl)amino)quinoxalin-5-yl)dimethylphosphine oxide], the values for the IC50 in assay [1], in assay [2] and in assay [3] were 2.45 nM, 0.29 nM and 139 nM, respectively. The GI50 in assay [4] was 1.57 nM; in assay [5] it was 3.34 nM.

In the case of `COc1cc(N2CCOCC2)c(-c2cnn(S(=O)(=O)C3CC3)c2)cc1Nc1ncc(Br)c(Nc2ccc3nccnc3c2P(C)(C)=O)n1` [Compound 8, (6-((5-bromo-2-((5-(1-(cyclopropylsulfonyl)-1H-pyrazol-4-yl)-2-methoxy-4-morpholinylphenyl)amino)pyrimidin-4-yl)amino)quinoxalin-5-yl)dimethylphosphine oxide], the IC50 is 358 nM in assay [1], 3.19 nM in assay [2] and 769 nM in assay [3]. The GI50 turned out to be 69 nM in assay [4] and 137 nM in assay [5].

`COc1cc(N2CCC(N3CC(F)C3)C2)c(-c2cnn(C)c2)cc1Nc1ncc(Br)c(Nc2ccc3nccnc3c2P(C)(C)=O)n1` (racemic) [compound 223, (6-((5-Bromo-2-((4-(3-(3-fluoroazetidin-1-yl)pyrrolidin-1-yl)-2-methoxy-5-(1-methyl-1H-pyrazol-4-yl)phenyl)amino)pyrimidin-4-yl)amino)quinoxalin-5-yl)dimethylphosphine oxide]: the values for the IC50 in assay [1], in assay [2] and in assay [3] were 7 nM, 0.17 nM and 76.9 nM, respectively. The GI50 in assay [4] stood at 2.88 nM; in assay [5], 3.56 nM.

The values above are taken from patent publication US20230219986A1, “NOVEL AMINOPYRIMIDINE EGFR INHIBITOR” (QILU PHARMACEUTICAL CO., LTD., priority 2020, published 2023).
